Results: ChEMBL document CHEMBL1135199, “Structure-activity relationships of non-imidazole H(3) receptor ligands. Part 2: binding preference for D-amino acids motifs” (Bioorg Med Chem Lett, 2002)

Tests used:
Histamine H1 receptor = Histamine H1 receptor (Homo sapiens, UniProt P35367); experiment: Binding affinity towards Histamine H1 receptor of human membranes.
Histamine H2 receptor = Histamine H2 receptor (Homo sapiens, UniProt P25021); experiment: Binding affinity towards Histamine H2 receptor from human membranes
Histamine H3 receptor [1] = molecular target: Histamine H3 receptor (Rattus norvegicus, UniProt Q9QYN8); experiment: Binding affinity towards Histamine H3 receptor of rat cortical membranes.
[2] = Oral bioavailability in rat (dose 5 mg/kg p.o.); assay type: ADME, organism-based; conditions: in vivo
[3] = molecular target: Histamine H3 receptor (Rattus norvegicus) (UniProt Q9QYN8); experiment: In vitro histamine H3 receptor antagonist activity was determined by K+-evoked depolarization- induced release of [3H]histamine from rat synaptosomes; assay type: functional, subcellular; conditions: Brain
Histamine H3 receptor [4] = molecular target: Histamine H3 receptor (Cavia porcellus, UniProt Q9JI35); experiment: Tested in vitro for histamine H3 receptor mediate inhibition of neurogenic contractions in guinea pig isolated ileum assay; assay type: functional, tissue-based; conditions: read-out: pA2 (converted)
Sequence of Histamine H3 receptor (Cavia porcellus, UniProt Q9JI35) (Q9JI35 whole entry): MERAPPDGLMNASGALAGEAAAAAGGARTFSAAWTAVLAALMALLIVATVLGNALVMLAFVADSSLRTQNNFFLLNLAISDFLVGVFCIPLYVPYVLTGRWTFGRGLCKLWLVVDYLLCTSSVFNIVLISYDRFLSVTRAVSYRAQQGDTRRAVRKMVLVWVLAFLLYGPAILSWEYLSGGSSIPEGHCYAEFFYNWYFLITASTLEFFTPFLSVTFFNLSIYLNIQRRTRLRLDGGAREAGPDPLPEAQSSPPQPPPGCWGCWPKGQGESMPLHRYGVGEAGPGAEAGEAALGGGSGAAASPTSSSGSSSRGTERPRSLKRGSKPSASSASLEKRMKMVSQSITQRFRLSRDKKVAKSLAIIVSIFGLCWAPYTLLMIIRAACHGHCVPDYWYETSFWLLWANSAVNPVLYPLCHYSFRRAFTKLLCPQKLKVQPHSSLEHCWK

Sequence of Histamine H3 receptor (Rattus norvegicus, UniProt Q9QYN8) (Q9QYN8 whole entry): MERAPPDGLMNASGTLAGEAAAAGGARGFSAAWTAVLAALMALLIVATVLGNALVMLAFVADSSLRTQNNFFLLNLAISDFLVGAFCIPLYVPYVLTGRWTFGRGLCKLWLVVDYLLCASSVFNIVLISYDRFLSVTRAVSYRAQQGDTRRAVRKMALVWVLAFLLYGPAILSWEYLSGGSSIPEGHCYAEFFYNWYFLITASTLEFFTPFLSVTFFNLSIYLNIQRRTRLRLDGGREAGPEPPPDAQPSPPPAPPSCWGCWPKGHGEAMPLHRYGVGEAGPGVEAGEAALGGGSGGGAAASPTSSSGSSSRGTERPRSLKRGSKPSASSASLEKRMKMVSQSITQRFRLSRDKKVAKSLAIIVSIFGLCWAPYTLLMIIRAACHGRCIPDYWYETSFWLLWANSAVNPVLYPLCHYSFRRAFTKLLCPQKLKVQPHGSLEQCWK
Sequence of Histamine H1 receptor (P35367 whole entry): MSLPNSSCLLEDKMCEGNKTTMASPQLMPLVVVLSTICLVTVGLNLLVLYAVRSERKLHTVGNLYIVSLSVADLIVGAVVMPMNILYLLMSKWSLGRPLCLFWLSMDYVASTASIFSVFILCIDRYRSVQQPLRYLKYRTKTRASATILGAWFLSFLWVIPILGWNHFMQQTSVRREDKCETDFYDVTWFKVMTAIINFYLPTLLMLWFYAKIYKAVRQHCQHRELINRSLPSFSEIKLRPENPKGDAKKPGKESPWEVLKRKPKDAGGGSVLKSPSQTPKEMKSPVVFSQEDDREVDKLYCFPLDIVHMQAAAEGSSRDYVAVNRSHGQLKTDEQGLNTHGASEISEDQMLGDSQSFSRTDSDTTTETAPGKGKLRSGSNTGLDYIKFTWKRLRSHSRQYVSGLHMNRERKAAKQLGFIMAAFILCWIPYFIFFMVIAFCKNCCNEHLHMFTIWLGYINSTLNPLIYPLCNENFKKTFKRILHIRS
Sequence of Histamine H2 receptor (P25021 whole entry): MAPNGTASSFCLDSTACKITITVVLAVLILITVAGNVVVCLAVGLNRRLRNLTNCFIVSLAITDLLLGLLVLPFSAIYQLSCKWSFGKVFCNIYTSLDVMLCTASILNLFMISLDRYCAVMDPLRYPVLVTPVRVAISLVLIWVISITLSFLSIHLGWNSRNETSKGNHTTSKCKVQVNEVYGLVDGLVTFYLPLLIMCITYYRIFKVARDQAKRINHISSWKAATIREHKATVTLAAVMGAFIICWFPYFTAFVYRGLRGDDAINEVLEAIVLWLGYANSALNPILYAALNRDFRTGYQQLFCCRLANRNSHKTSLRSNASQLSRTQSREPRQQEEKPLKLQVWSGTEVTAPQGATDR
Sequence of Histamine H3 receptor (Rattus norvegicus) (Q9QYN8 whole entry): as the sequence (Q9QYN8 whole entry) above

Row | Structure (SMILES) | Ki (Histamine H1 receptor) | Ki (Histamine H2 receptor) | Ki (Histamine H3 receptor [1]) | bioavailability [2] | pKb [3] | Kb (Histamine H3 receptor [4])
1 | CCCCCC(=O)c1ccc(OCCCN2CCN(C(=O)[C@H](N)C(C)C)CC2)cc1 | 16.6 µM | 31.6 µM | 0.017 µM |  |  | 
2 | NCCC(=O)N1CCN(CCCOc2ccc(C(=O)C3CC3)cc2)CC1 | 28.2 µM | 100 µM | 0.000501 µM | 46% |  | 
3 | N[C@H](Cc1ccsc1)C(=O)N1CCN(CCCOc2ccc(C(=O)C3CC3)cc2)CC1 | 9.77 µM | 46.8 µM | 0.0229 µM |  |  | 
4 | CCC[C@@H](N)C(=O)N1CCN(CCCOc2ccc(C(=O)C3CC3)cc2)CC1 | 46.8 µM | 60.3 µM | 0.00398 µM |  |  | 
5 | CCCCCC(=O)c1ccc(OCCCN2CCN(C(=O)[C@@H](N)Cc3ccncc3)CC2)cc1 | 2.29 µM | 34.7 µM | 0.0102 µM |  |  | 
6 | C[C@@H](CN)C(=O)N1CCN(CCCOc2ccc(C(=O)C3CC3)cc2)CC1 | 1.51 µM | 10.2 µM | 0.00646 µM |  |  | 
7 | O=C(c1ccc(OCCCN2CCN(C(=O)[C@H]3CCCN3)CC2)cc1)C1CC1 | 37.2 µM | 53.7 µM | 0.0302 µM |  |  | 
8 | N[C@H](Cc1nccs1)C(=O)N1CCN(CCCOc2ccc(C(=O)C3CC3)cc2)CC1 | 100 µM | 97.7 µM | 0.00575 µM |  |  | 
9 | C[C@H](CN)C(=O)N1CCN(CCCOc2ccc(C(=O)C3CC3)cc2)CC1 | 1.74 µM | 10.7 µM | 0.00891 µM |  |  | 
10 | CCCCCC(=O)c1ccc(OCCCN2CCN(C(=O)[C@H](NC(=O)OC(C)(C)C)C(C)C)CC2)cc1 | 3.31 µM | 13.5 µM | 0.0148 µM |  |  | 
11 | CCCCCC(=O)c1ccc(OCCCN2CCN(C(=O)OCC)CC2)cc1 |  |  |  | 0% |  | 
12 | CNCC(=O)N1CCN(CCCOc2ccc(C(=O)C3CC3)cc2)CC1 | 100 µM | 79.4 µM | 0.00229 µM |  |  | 
13 | CCCCCC(=O)c1ccc(OCCCN2CCN(C(=O)[C@@H](Cc3ccncc3)NC(=O)OC(C)(C)C)CC2)cc1 | 17 µM | 12 µM | 0.0234 µM |  |  | 
14 | N[C@H](Cc1ccc(F)cc1)C(=O)N1CCN(CCCOc2ccc(C(=O)C3CC3)cc2)CC1 | 9.33 µM | 39.8 µM | 0.0295 µM |  |  | 
15 | CC(C)N[C@H](C)C(=O)N1CCN(CCCOc2ccc(C(=O)C3CC3)cc2)CC1 | 46.8 µM | 50.1 µM | 0.00871 µM |  |  | 
16 | N[C@@H](C(=O)N1CCN(CCCOc2ccc(C(=O)C3CC3)cc2)CC1)C1Cc2ccccc2C1 | 10.7 µM | 19.1 µM | 0.0263 µM |  |  | 
17 | CCCCCC(=O)c1ccc(OCCCN2CCN(C(=O)[C@H](CC(C)C)NC(=O)OC(C)(C)C)CC2)cc1 | 8.13 µM | 3.47 µM | 0.112 µM |  |  | 
18 | CC[C@H](N)C(=O)N1CCN(CCCOc2ccc(C(=O)C3CC3)cc2)CC1 | 4.68 µM | 10.7 µM | 0.00251 µM |  |  | 
19 | CC[C@@H](N)C(=O)N1CCN(CCCOc2ccc(C(=O)C3CC3)cc2)CC1 (stereo in doubt; 57) | 2.09 µM | 11 µM | 0.00195 µM |  |  | 
20 | CCCCCC(=O)c1ccc(OCCCN2CCN(C(=O)[C@H](Cc3ccncc3)NC(=O)OC(C)(C)C)CC2)cc1 | 9.33 µM | 14.8 µM | 0.0537 µM |  |  | 
21 | CCCCCC(=O)c1ccc(OCCCN2CCN(C(=O)[C@@H](N)C(C)C)CC2)cc1 | 19.1 µM | 38 µM | 0.0794 µM |  |  | 
22 | CC(C)(C)OC[C@@H](N)C(=O)N1CCN(CCCOc2ccc(C(=O)C3CC3)cc2)CC1 | 16.2 µM | 45.7 µM | 0.00851 µM |  |  | 
23 | CC(C)(C)C[C@@H](N)C(=O)N1CCN(CCCOc2ccc(C(=O)C3CC3)cc2)CC1 | 10.2 µM |  |  |  |  | 
24 | CCCCCC(=O)c1ccc(OCCCN2CCN(C(=O)[C@H](N)Cc3ccncc3)CC2)cc1 | 3.31 µM | 37.2 µM | 0.00912 µM |  |  | 
25 | CCCCCC(=O)c1ccc(OCCCN2CCN(C(=O)[C@H](N)CC(C)C)CC2)cc1 | 14.5 µM | 14.1 µM | 0.0617 µM |  |  | 
26 | N[C@@H](C(=O)N1CCN(CCCOc2ccc(C(=O)C3CC3)cc2)CC1)c1ccccc1 | 4.57 µM | 24.5 µM | 0.0275 µM |  |  | 
27 | N#CC[C@@H](N)C(=O)N1CCN(CCCOc2ccc(C(=O)C3CC3)cc2)CC1 | 45.7 µM | 72.4 µM | 0.0288 µM |  |  | 
28 | CC(C)(C)[C@@H](N)C(=O)N1CCN(CCCOc2ccc(C(=O)C3CC3)cc2)CC1 | 21.9 µM | 19.1 µM | 0.0525 µM |  |  | 

Row | Structure (SMILES) | Ki (Histamine H1 receptor) | Ki (Histamine H2 receptor) | Ki (Histamine H3 receptor [1]) | bioavailability [2] | pKb [3] | Kb (Histamine H3 receptor [4])
29 | O=C(c1ccc(OCCCN2CCN(C(=O)C[C@H]3CCCN3)CC2)cc1)C1CC1 | 95.5 µM | 89.1 µM |  |  |  | 
30 | N[C@H](Cc1c[nH]cn1)C(=O)N1CCN(CCCOc2ccc(C(=O)C3CC3)cc2)CC1 | 95.5 µM | 89.1 µM | 0.00457 µM |  |  | 
31 | CN[C@H](Cc1ccccc1)C(=O)N1CCN(CCCOc2ccc(C(=O)C3CC3)cc2)CC1 | 13.5 µM | 17.8 µM | 0.0437 µM |  |  | 
32 | N[C@H](Cc1ccc(-c2ccccc2)cc1)C(=O)N1CCN(CCCOc2ccc(C(=O)C3CC3)cc2)CC1 | 12 µM | 20.4 µM | 0.132 µM |  |  | 
33 | O=C1C[C@@H](N2CCN(CCCOc3ccc(C(=O)C4CC4)cc3)CC2)N1 | 10 µM | 10 µM | 0.00437 µM |  |  | 
34 | C[C@H](N)C(=O)N1CCN(CCCOc2ccc(C(=O)C3CC3)cc2)CC1 | 53.7 µM | 41.7 µM | 0.0204 µM |  |  | 
35 | CC(C)(C)OC(=O)N[C@H](Cc1ccccc1)C(=O)N1CCN(CCCOc2ccc(C(=O)C3CC3)cc2)CC1 | 5.5 µM | 10 µM | 0.00398 µM |  |  | 
36 | CC(C)(C)OC(=O)N1CCC[C@@H]1C(=O)N1CCN(CCCOc2ccc(C(=O)C3CC3)cc2)CC1 | 46.8 µM | 50.1 µM | 0.12 µM |  |  | 
37 | CCCCCC(=O)c1ccc(OCCCN2CCN(C(=O)[C@@H](N)CC(C)C)CC2)cc1 | 9.77 µM | 16.6 µM | 0.17 µM |  |  | 
38 | CCCCCC(=O)c1ccc(OCCCN2CCN(C(=O)[C@@H](C)NC(=O)OC(C)(C)C)CC2)cc1 | 6.76 µM | 10.7 µM | 0.00123 µM |  |  | 
39 | CC[C@@H](N)C(=O)N1CCN(CCCOc2ccc(C(=O)C3CC3)cc2)CC1 (stereo in doubt; 43) | 70.8 µM | 100 µM | 0.00158 µM |  |  | 
40 | CCCCCC(=O)c1ccc(OCCCN2CCN(C(=O)[C@@H](C)N)CC2)cc1 | 35.5 µM | 40.7 µM | 0.00191 µM |  |  | 
41 | CCCCCC(=O)c1ccc(OCCCN2CCN(C(=O)[C@H](N)CO)CC2)cc1 | 46.8 µM | 34.7 µM | 0.00708 µM |  |  | 
42 | O=C(c1ccc(OCCCN2CCN(C(=O)[C@H]3CCN3)CC2)cc1)C1CC1 | 12.6 µM | 14.1 µM | 0.00132 µM |  |  | 
43 | O=C(c1ccc(OCCCN2CCN(C(=O)[C@@H]3CCN3)CC2)cc1)C1CC1 | 10 µM | 12.3 µM | 0.0129 µM |  |  | 
44 | CCCCCC(=O)c1ccc(OCCCN2CCN(C(=O)[C@@H](NC(=O)OC(C)(C)C)C(C)C)CC2)cc1 | 10.7 µM | 12.6 µM | 0.0977 µM |  |  | 
45 | CCCCCC(=O)c1ccc(OCCCN2CCN(C(=O)[C@@H](CC(C)C)NC(=O)OC(C)(C)C)CC2)cc1 | 4.68 µM | 4.47 µM | 0.0145 µM |  |  | 
46 | N[C@H](Cc1cc2ccccc2s1)C(=O)N1CCN(CCCOc2ccc(C(=O)C3CC3)cc2)CC1 | 4.37 µM | 15.1 µM | 0.288 µM |  |  | 
47 | CCCCCC(=O)c1ccc(OCCCN2CCN(C(=O)[C@@H](CO)NC(=O)OC(C)(C)C)CC2)cc1 | 17 µM | 22.9 µM | 0.0024 µM |  |  | 
48 | N[C@H](Cc1cccc2ccccc12)C(=O)N1CCN(CCCOc2ccc(C(=O)C3CC3)cc2)CC1 | 2 µM | 20.9 µM | 0.214 µM |  |  | 
49 | C[C@@H](NC(=O)OC(C)(C)C)C(=O)N1CCN(CCCOc2ccc(C(=O)C3CC3)cc2)CC1 | 8.13 µM | 83.2 µM |  |  |  | 
50 | O=C1C[C@H](N2CCN(CCCOc3ccc(C(=O)C4CC4)cc3)CC2)N1 | 21.9 µM | 26.9 µM | 0.0427 µM |  |  | 
51 | N[C@H](CCc1ccccc1)C(=O)N1CCN(CCCOc2ccc(C(=O)C3CC3)cc2)CC1 | 10 µM | 10 µM | 0.00457 µM |  |  | 
52 | N[C@H](Cc1ccc(O)cc1)C(=O)N1CCN(CCCOc2ccc(C(=O)C3CC3)cc2)CC1 | 9.77 µM | 33.1 µM | 0.0302 µM |  |  | 
53 | N[C@H](CC1CCCCC1)C(=O)N1CCN(CCCOc2ccc(C(=O)C3CC3)cc2)CC1 | 14.5 µM | 20.4 µM | 0.162 µM |  |  | 
54 | C[C@@H](N)C(=O)N1CCN(CCCOc2ccc(C(=O)C3CC3)cc2)CC1 | 69.2 µM | 70.8 µM | 0.00126 µM | 83% | 8.75 | 0.105 µM
55 | CN[C@@H](C(=O)N1CCN(CCCOc2ccc(C(=O)C3CC3)cc2)CC1)C(C)C | 34.7 µM | 49 µM | 0.0759 µM |  |  | 
